Data set [1] in a line: Drug uptake in human SH-SY5Y cells at 1 uM after 90 mins by confocal fluorescence microscopy analysis. It counts as ADME, cell-based. As to conditions: 1.5 h; call rule not given here.
Data set [2] has as its target MDR-1 (P-glycoprotein, ABCB1) (Homo sapiens, UniProt P08183). Description: Inhibition of MDR-1 (unknown origin) expressed in human Caco2 cells using Calcein-AM at 50 uM preincubated for 30 mins by fluorescence based PDSP assay relative to control. It counts as cell-based. Conditions: Caco-2 cells expressing MDR-1, probe Calcein-AM.
Data set [3] can be described thus: Drug uptake in human SH-SY5Y cells at 10 uM after 90 mins by confocal fluorescence microscopy analysis. It counts as ADME, cell-based. As to conditions: 1.5 h.

Structures are written as SMILES.

Sequence of MDR-1 (P-glycoprotein, ABCB1) (P08183 whole entry): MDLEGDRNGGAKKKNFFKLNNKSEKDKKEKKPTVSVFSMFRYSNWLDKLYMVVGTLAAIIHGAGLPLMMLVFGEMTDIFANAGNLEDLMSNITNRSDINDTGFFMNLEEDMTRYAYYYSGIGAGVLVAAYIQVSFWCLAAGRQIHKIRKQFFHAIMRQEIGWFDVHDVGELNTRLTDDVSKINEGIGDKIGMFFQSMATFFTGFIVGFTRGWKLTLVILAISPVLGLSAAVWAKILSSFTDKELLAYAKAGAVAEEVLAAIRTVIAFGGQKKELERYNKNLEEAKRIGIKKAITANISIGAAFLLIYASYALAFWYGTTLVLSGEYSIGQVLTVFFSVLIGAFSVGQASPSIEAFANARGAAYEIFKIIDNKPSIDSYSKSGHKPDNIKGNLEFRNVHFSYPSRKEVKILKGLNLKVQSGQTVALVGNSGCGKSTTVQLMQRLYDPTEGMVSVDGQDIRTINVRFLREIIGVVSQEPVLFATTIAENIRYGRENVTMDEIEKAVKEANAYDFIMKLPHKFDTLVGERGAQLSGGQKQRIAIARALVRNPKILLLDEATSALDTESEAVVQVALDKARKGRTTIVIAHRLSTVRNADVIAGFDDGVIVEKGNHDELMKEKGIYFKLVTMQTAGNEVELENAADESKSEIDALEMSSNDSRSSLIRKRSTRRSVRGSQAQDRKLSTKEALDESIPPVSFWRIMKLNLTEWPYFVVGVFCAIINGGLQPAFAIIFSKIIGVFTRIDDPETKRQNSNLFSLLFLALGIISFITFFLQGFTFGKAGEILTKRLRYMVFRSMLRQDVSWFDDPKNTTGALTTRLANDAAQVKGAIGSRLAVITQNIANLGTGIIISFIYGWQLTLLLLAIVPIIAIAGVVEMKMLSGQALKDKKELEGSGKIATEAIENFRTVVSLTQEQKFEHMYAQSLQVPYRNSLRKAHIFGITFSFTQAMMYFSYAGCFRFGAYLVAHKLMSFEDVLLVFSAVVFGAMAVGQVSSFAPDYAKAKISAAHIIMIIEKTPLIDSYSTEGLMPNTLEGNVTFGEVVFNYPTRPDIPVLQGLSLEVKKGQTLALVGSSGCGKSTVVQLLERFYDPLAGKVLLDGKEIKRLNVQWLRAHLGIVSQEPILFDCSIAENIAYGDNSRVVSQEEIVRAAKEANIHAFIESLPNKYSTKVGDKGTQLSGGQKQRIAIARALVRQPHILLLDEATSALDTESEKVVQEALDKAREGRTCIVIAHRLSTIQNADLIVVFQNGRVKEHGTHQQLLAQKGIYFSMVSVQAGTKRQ

On to `CCOC(=O)C1=C(C)NC(C)=C(C(=O)NCCCCCCNS(=O)(=O)c2ccc(-c3c4ccc(N(CC)CC)cc4[o+]c4cc(N(CC)CC)ccc34)c(S(=O)(=O)[O-])c2)C1c1c(-c2ccccc2)noc1C` (stereo not drawn), for which the Drug uptake entry in data set [1] is given as “Active”.
In general, inhibition refers to the drop in the measured response relative to a control, in per cent. Take `CCOC(=O)C1=C(C)NC(C)=C(C(=O)NCCCCCCCCNS(=O)(=O)c2cccc3c(N(C)C)cccc23)C1c1c(-c2ccccc2)noc1C` (stereo not drawn): in data set [2], the inhibition at 30 min, 50 µM was 63%. In addition, the Drug uptake result in data set [3] is “Active”.

Values taken from ChEMBL document CHEMBL3098092, “Fluorescent probes of the isoxazole-dihydropyridine scaffold: MDR-1 binding and homology model” (Bioorg Med Chem Lett, 2014).
